Test results reported in patent US8227601B2, “Diaryl-purines, azapurines and -deazapurines as non-nucleoside reverse transcriptase inhibitor for treatment of HIV” (priority 2005, dated 2012).

Legend:
Experiment in all cases: microbe, parasite or virus in culture
Format in all cases: cell-based, human immunodeficiency virus type 1 (HIV-1)
[1] = test system: wild type HIV-1; conditions: Human immunodeficiency virus 1, Hela-JC53, read-out: EC50 WT (nM)
[2] = test system: HIV-1 Y181C; conditions: Human immunodeficiency virus 1, read-out: EC50 Y181C (nM), Y181C mutant
[3] = test system: HIV-1 Y188L; conditions: Human immunodeficiency virus 1, read-out: EC50 Y188L (nM)
[4] = test system: HIV-1 L1001-K103N; conditions: Human immunodeficiency virus 1, read-out: EC50 L1001-K103N (nM), L1001-K103N mutant

SMILES	EC50 [1] [nM]	EC50 [2] [nM]	EC50 [3] [nM]	EC50 [4] [nM]
Cc1cc(C)c(Oc2nc(Nc3ccc(C#N)cc3)nc3[nH]ccc23)c(C)c1 [Cpd 1]	< 10	10 to 100	10 to 100	10 to 100
Cc1cc(C)c(Sc2nc(Nc3ccc(C#N)cc3)nc3[nH]ccc23)c(C)c1 [Cpd 2]	< 10	10 to 100	10 to 100	> 100
Cc1cc(C#N)cc(C)c1Oc1nc(Nc2ccc(C#N)cc2)nc2[nH]ccc12 [Cpd 3]	< 10	< 10	< 10	< 10
Cc1cc(C)c(Nc2nc(Nc3ccc(C#N)cc3)nc3[nH]ccc23)c(C)c1 [Cpd 4]	< 10	10 to 100	10 to 100	10 to 100
Cc1cc(C)c(Oc2nc(Nc3ccc(C#N)cc3)nc3[nH]cnc23)c(C)c1 [Cpd 5]	< 10	< 10	< 10	< 10
Cc1cc(Br)cc(C)c1Oc1nc(Nc2ccc(C#N)cc2)nc2[nH]ccc12 [Cpd 6]	< 10	10 to 100	10 to 100	10 to 100
Cc1cc(C)c(Oc2nc(Nc3ccc(C#N)cc3)nc3[nH]ncc23)c(C)c1 [Cpd 7]	< 10	< 10	10 to 100	10 to 100
Cc1cc(Br)cc(Cl)c1Oc1nc(Nc2ccc(C#N)cc2)nc2c1ccn2Cc1ccccc1 [Cpd 8]	10 to 100	> 100	> 100	> 100
Cc1ccc(Oc2nc(Nc3ccc(C#N)cc3)nc3[nH]ccc23)c(C)c1 [Cpd 9]	< 10	> 100	> 100	> 100
Cc1cc(Br)cc(Cl)c1Oc1nc(Nc2ccc(C#N)cc2)nc2[nH]ccc12 [Cpd 10]	< 10	10 to 100	10 to 100	10 to 100
Cc1cc(Cl)cc(C)c1Oc1nc(Nc2ccc(C#N)cc2)nc2[nH]ccc12 [Cpd 11]	< 10	10 to 100	< 10	10 to 100
Cc1cc(C)c(Oc2nc(Nc3ccc(S(N)(=O)=O)cc3)nc3[nH]cnc23)c(C)c1 [Cpd 12]	10 to 100	> 100	> 100	> 100
Cc1cc(C#N)cc(C)c1Oc1nc(Nc2ccc(C#N)cc2)nc2c1ccn2C [Cpd 13]	< 10	< 10	< 10	< 10
COC(=O)c1ccc(Nc2nc(Oc3c(C)cc(C)cc3C)c3nc[nH]c3n2)cc1 [Cpd 14]	< 10	> 100	> 100	> 100
Cc1cc(C)c(Oc2nc(Nc3ccc(C(N)=O)cc3)nc3[nH]cnc23)c(C)c1 [Cpd 15]	10 to 100	> 100	> 100	> 100
Cc1cc(C)c(Oc2nc(Nc3ccc(C(=O)O)cc3)nc3[nH]cnc23)c(C)c1 [Cpd 16]	> 100	> 100	> 100	> 100
Cc1cc(C#N)cc(C)c1Oc1nc(Nc2ccc(C#N)cc2)nc2[nH]ncc12 [Cpd 17]	< 10	10 to 100	< 10	10 to 100
Cc1cc(C)c(Oc2nc(Nc3ccc(C#N)cc3)nc3[nH]cc(Cl)c23)c(C)c1 [Cpd 18]	10 to 100	> 100	> 100	> 100
Cc1cc(C2CC2)cc(C)c1Oc1nc(Nc2ccc(C#N)cc2)nc2[nH]cnc12 [Cpd 19]	< 10	< 10	< 10	10 to 100
Cc1ccc(Nc2nc(Nc3ccc(C#N)cc3)nc3[nH]cnc23)c2ccccc12 [Cpd 20]	< 10	10 to 100	> 100	> 100
N#Cc1ccc(Nc2nc(Oc3ccc(Cl)c4ccccc34)c3nc[nH]c3n2)cc1 [Cpd 21]	< 10	10 to 100	10 to 100	> 100
N#Cc1ccc(Nc2nc(Nc3ccc(C4CC4)c4ccccc34)c3nc[nH]c3n2)cc1 [Cpd 22]	< 10	> 100	> 100	> 100
Cc1cc(C)c(Nc2nc(Nc3ccc(C#N)cc3)nc3[nH]cnc23)c(C)c1 [Cpd 23]	< 10	< 10	< 10	10 to 100
N#Cc1ccc(Nc2nc(Nc3ccc(C#N)cc3)c3nc[nH]c3n2)cc1 [Cpd 24]	10 to 100	> 100	> 100	> 100
Cc1cc(C#N)cc(C)c1Oc1nc(Nc2ccc(C#N)cc2)nc2[nH]cnc12 [Cpd 25]	< 10	< 10	< 10	10 to 100
